Several values for one entry are separate records, joined by “and”; a condition that tells them apart may be missing. Identical values can stand only once. Like-named read-outs stand apart in the source and are kept apart here.
What was measured:
hCB2R [1] = target: T1, hCB2R (Homo sapiens, UniProt P34972); test: cell-based; assay type: cell-based; design: expressed in transfected cells; host or cells: Flp-In-293 (Invitrogen #R750-07), pcDNA5/FRT; settings: read-out: Emax ± SEM pERK hCB2R
C57BL6/J mice [2] = test: Triad assay: hypothermia; assay type: in vivo, mouse; settings: i.p., cumulative dosing, mice
[3] = test system: AEA reuptake in HaCaT cells; test: cells; assay type: cell-based, human; settings: Homo sapiens, HaCaT
hCB1R [4] = target: T2, hCB1R (Homo sapiens, UniProt P21554); test: cell-based; assay type: cell-based; settings: AtT20, read-out: Emax ± SEM GIRK hCB1R
T2 construct: host or cells: CHO
T2 sequence (P21554 whole entry): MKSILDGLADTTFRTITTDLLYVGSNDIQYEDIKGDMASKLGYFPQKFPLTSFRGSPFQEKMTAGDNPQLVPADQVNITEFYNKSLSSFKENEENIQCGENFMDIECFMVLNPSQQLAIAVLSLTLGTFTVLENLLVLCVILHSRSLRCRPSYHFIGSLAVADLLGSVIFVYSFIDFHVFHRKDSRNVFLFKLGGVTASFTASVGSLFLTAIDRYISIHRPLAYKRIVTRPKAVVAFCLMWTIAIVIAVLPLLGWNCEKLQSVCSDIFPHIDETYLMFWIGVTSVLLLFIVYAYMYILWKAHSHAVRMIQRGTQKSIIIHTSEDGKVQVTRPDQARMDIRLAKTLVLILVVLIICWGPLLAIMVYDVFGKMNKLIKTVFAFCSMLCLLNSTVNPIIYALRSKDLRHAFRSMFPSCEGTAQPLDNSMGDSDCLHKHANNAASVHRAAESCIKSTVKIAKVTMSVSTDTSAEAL

mCB2R [5] = target: T3, mCB2R (Mus musculus, UniProt P47936); test: biochemical; assay type: biochemical; design: from tissue; host or cells: spleen of male C57BL/6J mice
T3 sequence (P47936 whole entry): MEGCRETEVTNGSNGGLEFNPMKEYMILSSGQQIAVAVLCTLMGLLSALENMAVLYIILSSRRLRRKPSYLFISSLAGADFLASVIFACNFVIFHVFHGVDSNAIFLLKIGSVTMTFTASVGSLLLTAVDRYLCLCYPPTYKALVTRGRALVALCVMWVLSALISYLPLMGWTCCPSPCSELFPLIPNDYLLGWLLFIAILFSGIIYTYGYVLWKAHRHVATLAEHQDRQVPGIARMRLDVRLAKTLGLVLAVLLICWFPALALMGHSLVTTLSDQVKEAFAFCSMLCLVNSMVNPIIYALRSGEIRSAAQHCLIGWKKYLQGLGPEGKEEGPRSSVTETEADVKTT

hCB1R [6] = target: T2, hCB1R; test: cell-based
mCB2R [7] = target: T3, mCB2R; test: biochemical; assay type: binding; design: from tissue; host or cells: spleen of male C57BL/6J mice; settings: mouse spleen membranes; read-out: pKi ± SEM mCB2R (converted)
hCB2R [8] = target: T1, hCB2R; design: expressed in transfected cells; host or cells: Flp-In-293 (Invitrogen #R750-07), pcDNA5/FRT
C57BL6/J mice [9] = test: Triad assay: catalepsy; assay type: in vivo, mouse; settings: i.p., cumulative dosing, mice
hCB1R [10] = target: T2, hCB1R; test: cell-based; assay type: cell-based; settings: read-out: Emax ± SEM pERK hCB1R
physchem = settings: pH 6.5, aqueous buffer, thermodynamic from solid
C57BL6/J mice [11] = test: Triad assay: antinociception; assay type: in vivo, mouse; settings: i.p., cumulative dosing, mice
hCB1R [12] = target: T2, hCB1R; test: biochemical; assay type: binding
mCB1R [13] = target: T4, mCB1R (Mus musculus, UniProt P47746); test: biochemical
T4 construct: from tissue; host or cells: brain of male C57BL/6J mice
T4 sequence (P47746 whole entry): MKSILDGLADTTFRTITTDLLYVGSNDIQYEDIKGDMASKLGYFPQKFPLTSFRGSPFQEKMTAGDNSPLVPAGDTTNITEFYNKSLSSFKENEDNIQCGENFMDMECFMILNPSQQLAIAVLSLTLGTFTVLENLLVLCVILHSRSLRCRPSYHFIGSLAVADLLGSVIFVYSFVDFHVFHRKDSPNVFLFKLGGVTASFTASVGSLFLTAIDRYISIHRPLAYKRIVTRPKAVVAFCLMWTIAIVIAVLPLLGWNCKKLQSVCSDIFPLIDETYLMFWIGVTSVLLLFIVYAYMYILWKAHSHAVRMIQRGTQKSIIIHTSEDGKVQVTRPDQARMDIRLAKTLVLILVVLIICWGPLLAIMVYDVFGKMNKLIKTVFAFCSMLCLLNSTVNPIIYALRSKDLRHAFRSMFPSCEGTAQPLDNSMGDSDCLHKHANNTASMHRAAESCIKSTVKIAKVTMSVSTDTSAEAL

in vitro [14] = settings: both, human, microsomes, pH 7.4
in vitro [15] = settings: male, C57BL/6J, mouse, microsomes, pH 7.4
hCB2R [16] = target: T1, hCB2R; test: cell-based; assay type: cell-based; design: expressed in transfected cells; host or cells: Flp-In-293 (Invitrogen #R750-07), pcDNA5/FRT; settings: AtT20, read-out: Emax ± SEM GIRK hCB2R
hCB2R [17] = target: T1, hCB2R; test: cell-based; assay type: cell-based; design: expressed in transfected cells; host or cells: Flp-In-293 (Invitrogen #R750-07), pcDNA5/FRT; settings: read-out: Emax ± SEM cAMP hCB2R
mCB1R [18] = target: T4, mCB1R; test: biochemical; assay type: binding

T1 sequence (P34972 whole entry): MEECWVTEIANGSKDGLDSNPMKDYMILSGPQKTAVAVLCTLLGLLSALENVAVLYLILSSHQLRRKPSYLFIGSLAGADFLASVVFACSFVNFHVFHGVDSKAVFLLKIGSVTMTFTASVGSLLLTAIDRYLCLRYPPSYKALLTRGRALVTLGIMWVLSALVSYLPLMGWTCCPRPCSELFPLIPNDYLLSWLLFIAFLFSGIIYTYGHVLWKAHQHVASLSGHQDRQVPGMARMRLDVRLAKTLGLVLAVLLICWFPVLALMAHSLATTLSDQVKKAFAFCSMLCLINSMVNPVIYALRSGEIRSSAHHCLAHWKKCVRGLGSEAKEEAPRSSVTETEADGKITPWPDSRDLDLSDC

## CCCCCCC(C)(C)c1cc(O)c2c(c1)OC(C)(C)[C@@H]1CC=C(CO)C[C@@H]21 [HU210]
PAMPA
  Pct acceptor: 0%
  Pct donor: 23%
PAMPA, compound found in membranes
  Pct membrane: 76%
Membrane permeation coefficient
  Pampa Peff: 0.22 cm/s*10-6
hCB2R [1]
  Emax: 105 ± 10%
C57BL6/J mice [2]
  hypothermia ED50 (95% CL): 0.35 (0.30–0.41) mg kg^−1
[3]; read-out: AEA reuptake % inhibition, effect at 10 µM, HaCaT cells, 10 µM (values marked *)
  inhibition at 10 µM: 44%
[3]; read-out: AEA reuptake IC50 (95% CI) HaCaT cells
  IC50: > 5000 nM
hCB1R [4]
  Emax: 97 ± 8%
mCB2R [5]; mouse spleen, read-out: pEC50 ± SEM cAMP mCB2R (converted)
  EC50: 6.61 nM
mCB2R [5]; read-out: Emax cAMP mCB2R
  Emax: 68%
hCB1R [6]; pEC50 ± SEM cAMP hCB1R
  EC50: 0.263 nM
hCB1R [6]; read-out: Emax ± SEM cAMP hCB1R
  Emax: 104 ± 3%
mCB2R [7]
  Ki: 0.537 nM
hCB2R [8]
  LogR GIRK: 7.19
  LogR pERK: 8.22
  RE GIRK: 0.21
  RE pERK: 0.15
  pERK-GIRK bias factor (BF): 0.71
  pERK-GIRK ΔΔlogR: -0.15
  ΔLogR GIRK: -0.67
  ΔLogR pERK: -0.82
C57BL6/J mice [9]
  catalepsy ED50 (95% CL): 0.19 (0.14–0.27) mg kg^−1
hCB1R [10]
  Emax: 96 ± 7%
physchem
  solubility kinetic: < 0.2 µg/mL and < 0.5 µM
C57BL6/J mice [11]
  antinociception ED50 (95% CL): 0.41 (0.31–0.54) mg kg^−1
hCB1R [12]
  Ki: 0.282 nM
mCB1R [13]; pEC50 ± SEM cAMP mCB1R
  EC50: 0.0933 nM
mCB1R [13]; read-out: Emax cAMP mCB1R
  Emax: 65%
In vitro [14]
  microsomal CLint: 25 µL/min/mg
In vitro [15]
  microsomal CLint: 33 µL/min/mg
hCB2R [16]
  Emax: 105 ± 4%
hCB2R [17]
  Emax: 94 ± 0.1%
mCB1R [18]
  Ki: 1.1 nM
